Key:
[1] = test system: human blood outgrowth endothelial cells (HBOEC); assay: Homogeneous phage recovery (relative binding) on HBOEC; conditions: for concentration dependence of homogeneous recovery (binding to HBOEC): 1.10^9, 1.10^10, 1.10^11 pfu, 1 h at 4° C.; for concentration dependence of homogeneous recovery (binding to HBOEC) / relative recovery / affinity-avidity among the four selected phage clones: FIG. 1B; for relative recovery / affinity-avidity among the four selected phage clones: four clones with different consensus motifs
Protocol: Cells at 80% confluence were detached by treating with 0.05% trypsin-EDTA, washed once with EGM-2 medium and resuspended in EGM-2 containing 1% BSA at 1.10^5 cells per ml. In the pre-clearing step, 1 ml of HUVEC suspension at 1.10^5 cells per ml were incubated with 10 μl of PhD-12 peptide phage display system (New England Biolabs, Beverly, Mass.) within 1.5 ml Eppendorf tube for 2 hours at 4° C.; the mixture was then centrifuged. In the screening step, the unbound phage pool remaining in the supernatant was transferred to a fresh tube and incubated with 1 ml of HBOEC at 1.10^5 cells per ml. After 1 hour incubation at 4° C., the cell-phage complexes were separated by centrifugation. Following five intensive washes with TBS-0.5% Tween-20 buffer the bound phage was non-specifically eluted with 0.2 M Glycine-HCl buffer (pH 2.2) for 10 min. The eluate was immediately neutralized by 1M Tris.HCl buffer (pH 9.0). An aliquot of the eluted phage was used for determining titer by plaque assay. The rest of the phage eluate was amplified in mid-log phase E. coli ER2738 (New England Biolabs), and purified by precipitation with polyethylene glycol. An aliquot of the amplified phage was subsequently re-applied to newly trypsinized cells for a total of three biopanning rounds and two amplification steps.
Once isolated individual phage clones were subjected to evaluation of relative binding. High titer stocks of homogeneous phage were generated. Serially diluted phage (1.10^9 pfu, 1.10^10 pfu, and 1.10^11 pfu) were incubated with HBOEC (1.10^5 cells) for 1 h at 4° C. and then subjected to the same wash protocol used for the selection experiments. In parallel the same procedure was carried in a blocked Eppendorf tube without HBOEC to test for non specific binding for each selected sequence to the plastic container. Binding ratio is defined as recovery of phage bound to the target cells normalized to the recovery of phage non-specifically bound to the plastic.

[2] = test system: panel of other cell types; assay: Binding specificity: biopanning of HBOEC-selected phage clones on a panel of other cell types; set-up: species or system human; conditions: 1.10^11 phage, 1 hour at 4° C., FIG. 3
Protocol: Lymphocytes and neutrophils were obtained from the same preparation. Lymphocytes were collected from the supernatant of the cultured buffy coat mononuclear cells that were allowed to adhere for 48 hours. The cell concentration was adjusted to 1.10^5 cells per ml.
Neutrophils were collected from the lower portion of the density gradient preparation. The upper layers were removed and processed as described above. The neutrophil-rich Histopaque layer was transferred to a centrifuge tube and diluted in fresh RPMI to wash the cells free of Histopaque. The suspension was centrifuged at 700×g for 15 min at room temperature. The supernatant was aspirated and the pellet resuspended in 10 ml of RPMI and centrifuged at 700×g for 10 min at room temperature. Contaminating red cells were lysed by quickly re-suspending the pellet in sterile water at 4° C. After 30 sec an equal volume of 1.8% saline solution was added in order to return the solution to isotonicity. The suspension was then centrifuged for 10 min at 250×g at 4° C. The cell lysis step was repeated. The final pellet was re-suspended and concentration adjusted to 1.10^5 cells per ml.
(§1) HUVEC were from the American Type Culture Collection (ATCC, Manassas, Va.). Passages 4 to 8 were used in this study. HUVEC were cultured in EGM-MV medium (Cambrex) at 37° C. in an incubator with humid atmosphere and 5% CO2.
Peripheral blood human HL-60 promyelocytic cells from the American Type Culture Collection (ATCC) were cultured in RPMI 1640 medium supplemented with 20% fetal bovine serum.
The specificity of HBOEC-selected phage clones was determined by biopanning on a panel of other cell types. The biopanning procedure was carried as described above with the exception of including the pre-clearing incubation step.

[3] = test system: HUVEC; assay: Cell binding assay: HUVEC attachment to peptide-modified substrates; assay type: cell-based, human; conditions: compared to RGE negative controls; FIG. 8D
Protocol: as §1
Peptide sequences were immobilized to methacrylic terpolymers via one step chain transfer controlled free radical polymerization as described by Fussell and Cooper (Fussell 2004a and Fussell 2004b). The monomers used in the reactions were n-hexyl methacrylate (HMA) (Alfa Aesar, Ward Hill, Mass.), methyl methacrylate (MMA) (ACROS Organics, Pittsburgh, Pa.), and methacrylic acid (MAA) (ACROS Organics, Pittsburgh, Pa.), with 2,2-azobisisobutyronitrile (AIBN) (Aldrich Chemical, Milwaukee, Wis.) as the initiator. The molar ratio of the monomers in the reaction mixture was HMA:MMA:MAA—20:78:2. The peptides were added with the monomers after the solvent was purged with argon. The reaction temperature for the polymerization was 55-60° C. and reactions were carried out overnight.
Peptide grafted materials were coated on round microscope cover glass slides. Glass slides were sterilized by immersion in 70% ethanol. […] Digital images were taken from 15 random fields per sample and quantified by computer assisted analysis.

Question: With “MPTLTRAPHTAC (Human outgrowth endothelial cell-binding peptides isolated from phage library) [SEQ ID NO:37]” as the substance, how does the “concentration dependence of homogeneous recovery (binding to HBOEC)” value (“concentration dependence” for short) [1] read?
Answer: bind HBOEC over a range of concentrations in a dose-dependent manner

Question: And the “relative recovery / affinity-avidity among the four selected phage clones” value [1]?
Answer: lowest affinity/avidity

Question: And the “recovery on cell types other than the target cells” value [2]?
Answer: No significant recovery

Question: Which results are given for “SPPPSNAGSHHV (Human outgrowth endothelial cell-binding peptides isolated from phage library) [SEQ ID NO:32]”?
Answer: concentration dependence of homogeneous recovery (binding to HBOEC) [1]: bind HBOEC over a range of concentrations in a dose-dependent manner; recovery on cell types other than the target cells [2]: No significant recovery

Question: How did the “concentration dependence” value [1] turn out when “SVPPRYTLTLQW (Human outgrowth endothelial cell-binding peptides isolated from phage library) [SEQ ID NO:7]” was run?
Answer: bind HBOEC over a range of concentrations in a dose-dependent manner

Question: What about the “recovery on cell types other than the target cells” value [2] of the same substance?
Answer: No significant recovery

Question: Which “concentration dependence” value [1] does the source give for “TPSLEQRTVYAK (Human outgrowth endothelial cell-binding peptides isolated from phage library) [SEQ ID NO:17]” here?
Answer: bind HBOEC over a range of concentrations in a dose-dependent manner

Question: What about the “binding ratio (recovery of phage bound to target cells normalized to phage non-specifically bound to plastic)” value ([1]; 1.10^11 pfu homogeneous phage, 1.10^5 HBOEC, 1 hour at 4° C., FIG. 2) of the same substance?
Answer: 43±20

Question: And the “relative recovery among phage bearing the TP(S/T/G) motif” value ([1]; 1.10^11 pfu, FIG. 2)?
Answer: highest recovery

Question: What about the “relative recovery / affinity-avidity among the four selected phage clones” value [1] of the same substance?
Answer: highest recovery

Question: What about the “recovery on cell types other than the target cells” value [2] of the same substance?
Answer: No significant recovery

Question: How did the HUVEC attachment [3] turn out when fibronectin was run?
Answer: statistically significant
